Read-outs that look alike come from different tables or passages of the source.
Experiments:
[1] = biological target: T1, clathrin heavy chain NTD (amino acids 1–364) – amphiphysin 1 B/C domain protein–protein interaction (NTD‐PPI) (Homo sapiens, UniProt Q00610); test: ELISA-based clathrin inhibitor binding assay (NTD-PPI)
T1 construct: GST‐tagged clathrin heavy chain NTD (amino acids 1–364); made in house
T1 sequence (Q00610 1-364): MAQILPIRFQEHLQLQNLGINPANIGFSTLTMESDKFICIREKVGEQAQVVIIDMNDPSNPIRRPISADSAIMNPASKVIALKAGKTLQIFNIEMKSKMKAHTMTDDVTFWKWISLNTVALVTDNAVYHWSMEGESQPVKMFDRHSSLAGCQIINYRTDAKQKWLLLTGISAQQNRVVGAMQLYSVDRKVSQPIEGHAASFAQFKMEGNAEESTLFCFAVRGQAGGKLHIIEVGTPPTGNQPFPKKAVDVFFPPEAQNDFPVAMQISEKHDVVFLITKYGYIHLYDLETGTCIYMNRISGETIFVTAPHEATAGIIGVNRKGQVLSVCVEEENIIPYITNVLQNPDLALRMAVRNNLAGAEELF
Method: The clathrin inhibitor assay was based inhibition of protein–protein interaction (PPI) between clathrin and amphiphysin as described in our previous report.^[ [45], [54] ^] Bacterially expressed recombinant purified His6‐tagged amphiphysin 1 B/C domain (which comprises both the clathrin and the AP‐2 binding sites, amino acids 250‐578^[ [55] ^]) in screening buffer (20 mM HEPES, pH 7.4, 50 mM NaCl, 1 mM DTT, 1 mM PMSF) was added to a 384 well ELISA plate (Corning Maxisorp 3700) and bound to the plastic for 1 h at room temperature. […] Following extensive washes (with 20 mM HEPES, pH 7.4, 50 mM NaCl, 0.05% Tween 20), chemical compounds diluted in DMSO (10 μL) were added and incubated together with bacterially expressed recombinant GST‐tagged clathrin heavy chain NTD (amino acids 1–364) for 1 h at room temperature in screening buffer. After 3 washes, horseradish peroxidase‐coupled anti‐GST antibodies were added in screening buffer and the plate incubated for 40 min at room temperature. Following additional washes, 50 μL TMB (3,3′,5,5′‐tetramethylbenzidine) (Pierce Biotechnology) chromogenic substrate of horseradish peroxidase was added, and the plate was incubated for 10 min before the reaction was terminated by adding 50 μL 1N sulfuric acid to produce a yellow colour. The amount of bound protein was determined by spectrophotometric measurement in a plate reader. Relative binding was calculated as a percentage of DMSO control.

[2] = system: transferrin uptake (CME) in U2OS osteosarcoma cells; test: Clathrin-mediated endocytosis assay: transferrin (Tfn) uptake in U2OS cells; format: cell-based; details: for IC50 / inhibition at 5 µM / inhibition at 50 µM: Homo sapiens, U2OS; for CME activity compared with Pitstop 2: in words; for inhibition at 5 µM: read-out: 2-point CME (% Inhibition) 5 µM; for inhibition at 50 µM: read-out: 2-point CME (% Inhibition) 50 µM
Method: Using our previously reported CME assay in U2OS cells, the ability of these compounds to block endocytosis was examined (Table 5 ).^[ [48], [49] ^]
CME was examined by a high‐throughput, quantitative assay for measuring transferrin (Tfn) uptake in U2OS osteosarcoma cells, based on methods described previously.^[ [48] ^]
Compounds were made up fresh from powder stock just prior to commencing the assay, and stock solutions were stored at −20 °C for several months.

[3] = biological target: T2, full length human Dynamin I (Homo sapiens, UniProt Q05193); test: Dynamin GTPase activity, Malachite Green phosphate detection assay; format: biochemical
T2 construct: full length human Dynamin I expressed in Sf21 insect cells; made in house; host or cells: Sf21 insect cells
T2 sequence (Q05193 1-864): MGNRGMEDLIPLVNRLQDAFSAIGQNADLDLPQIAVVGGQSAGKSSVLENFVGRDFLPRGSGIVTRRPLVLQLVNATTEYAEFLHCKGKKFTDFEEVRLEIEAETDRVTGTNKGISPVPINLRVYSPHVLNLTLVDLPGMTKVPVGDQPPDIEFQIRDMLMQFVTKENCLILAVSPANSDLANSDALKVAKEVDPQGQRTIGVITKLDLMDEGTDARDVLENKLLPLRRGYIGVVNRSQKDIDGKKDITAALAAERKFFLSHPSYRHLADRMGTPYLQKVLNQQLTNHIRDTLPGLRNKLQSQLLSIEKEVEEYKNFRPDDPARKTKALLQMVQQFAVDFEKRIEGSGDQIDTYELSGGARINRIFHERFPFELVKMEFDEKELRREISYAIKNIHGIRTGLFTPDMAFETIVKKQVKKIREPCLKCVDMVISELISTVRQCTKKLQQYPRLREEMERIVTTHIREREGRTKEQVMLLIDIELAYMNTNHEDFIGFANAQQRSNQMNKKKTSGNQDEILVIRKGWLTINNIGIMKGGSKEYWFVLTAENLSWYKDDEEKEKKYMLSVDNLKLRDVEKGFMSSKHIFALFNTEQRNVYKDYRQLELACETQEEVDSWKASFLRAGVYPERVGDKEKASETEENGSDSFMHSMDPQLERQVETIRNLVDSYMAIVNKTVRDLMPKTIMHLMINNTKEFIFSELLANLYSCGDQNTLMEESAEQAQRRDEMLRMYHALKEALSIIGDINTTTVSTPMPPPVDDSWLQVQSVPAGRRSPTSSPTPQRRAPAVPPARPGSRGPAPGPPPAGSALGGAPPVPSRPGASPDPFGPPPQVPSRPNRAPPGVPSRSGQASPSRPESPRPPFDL
Method: Dynamin GTPase activity was determined in vitro using the Malachite Green phosphate detection absorbance‐based assay within a 96‐well plate format as described previously. The enzyme source was full length human Dynamin I expressed in Sf21 insect cells and affinity‐purified on GST‐Amph2‐SH3 (rat Amphiphysin 2 (494–588)).^[ [56] ^]

[4] = Table 5, ELISA, read-out: NTD‐PPI IC50
[5] = Table 5, inhibition of transferrin‐red uptake in U2OS cells, '–'/NA = not active at 100 μM
[6] = Table 1, library 1, n = 1 unless noted (19: n = 2), '–' = not active at 150 μM, read-out: Dyn 1 IC50
[7] = Table 5, dynamin GTPase, n = 1 or n = 2 as footnoted, NA = not active at 100 μM, read-out: Dynamin 1 IC50
[8] = Table 3, library 3, n = 1 unless otherwise stated (41, 42: n = 2), '–' = not active at 100 μM, read-out: Dynamin 1 IC50
[9] = Table S1, preliminary (n=1) unless otherwise noted, NA = not active, includes IC50 > 150 μM, read-out: Dynamin 1 IC50
[10] = Table 4, library 4, ELISA, average of duplicate measurements (n = 2), read-out: NTD‐PPI IC50
[11] = Table 4, library 4, n = 1 or n = 2 as footnoted, '–' = not active at 100 μM, read-out: Dynamin 1 IC50
[12] = values quoted in running text (section 2.2), read-out: Dynamin IC50

| Structure (SMILES) | IC50 [1, 4] [µM] | IC50 [2, 5] [µM] | IC50 [1, 10] [µM] | IC50 ([1]; read-out: NTD‐PPI IC50 (ELISA)) [µM] | IC50 [3, 11] [µM] | further results |
| --- | --- | --- | --- | --- | --- | --- |
| O=C1N=C(NS(=O)(=O)c2cccc3ccccc23)S/C1=C\c1ccc([N+](=O)[O-])cc1 [compound 13, (Z)‐N‐(5‐(4‐nitrobenzylidene)‐4‐oxo‐4,5‐dihydrothiazol‐2‐yl)naphthalene‐1‐sulfonamide] | 5.2 | ~14.6 | – | – | – | IC50 ([1]; Table 1, library 1, ELISA, average of duplicate measurements (n=2), read-out: NTD‐PPI IC50): 5.2 µM; CME activity compared with Pitstop 2 ([2]; U2OS cells): comparable; IC50 [3, 6]: ~56 µM; IC50 [3, 7]: 55.8 µM |
| O=C1N=C(NS(=O)(=O)c2cccc3ccccc23)SC1=Cc1ccc(-c2ccccc2)cc1 [compound 18, N‐(5‐([1,1'‐biphenyl]‐4‐ylmethylene)‐4‐oxo‐4,5‐dihydrothiazol‐2‐yl)naphthalene‐1‐sulfonamide] | 1.4 | ~43.1 | – | – | – | IC50 [3, 6]: 85 µM; IC50 [3, 7]: 85.3 µM |
| O=C1N=C(NS(=O)(=O)c2cccc3ccccc23)S/C1=C\C1CCCC1 [compound 41, (Z)‐N‐(5‐(cyclopentylmethylene)‐4‐oxo‐4,5‐dihydrothiazol‐2‐yl)naphthalene‐1‐sulfonamide] | – | – | – | – | – | inhibition at 5 µM [2]: 11%; IC50 [3, 8]: > 100 µM; IC50 [3, 9]: > 150 µM |
| CCCC/C=C1\SC(NS(=O)(=O)c2cccc3ccccc23)=NC1=O [compound 42, (Z)‐N‐(4‐oxo‐5‐pentylidene‐4,5‐dihydrothiazol‐2‐yl)naphthalene‐1‐sulfonamide] | – | – | – | – | – | IC50 ([1]; Table 3, library 3, ELISA, average of duplicate measurements (n = 2), read-out: NTD‐PPI IC50): 6.5 µM; inhibition at 5 µM [2]: 0%; inhibition at 50 µM [2]: 31%; IC50 [3, 8]: > 100 µM; IC50 [3, 9]: > 150 µM |
| O=C1N=C(NS(=O)(=O)c2cccc3ccccc23)S/C1=C\c1ccsc1 [compound 44, (Z)‐N‐(4‐oxo‐5‐(thiophen‐3‐ylmethylene)‐4,5‐dihydrothiazol‐2‐yl)naphthalene‐1‐sulfonamide] | – | 36.4 ± 13.7 | – | – | – | – |
| O=C1N=C(NS(=O)(=O)c2cccc3ccccc23)S/C1=C\c1cc[nH]c1 [compound 45, (Z)‐N‐(5‐((1H‐pyrrol‐3‐yl)methylene)‐4‐oxo‐4,5‐dihydrothiazol‐2‐yl)naphthalene‐1‐sulfonamide] | 3 | ~108 | 3 | 33 | – | IC50 ([2]; U2OS cells): > 50 µM |
| O=C1N=C(NS(=O)(=O)c2cccc3ccccc23)S/C1=C\c1ccoc1 [compound 46, (Z)‐N‐(5‐(furan‐3‐ylmethylene)‐4‐oxo‐4,5‐dihydrothiazol‐2‐yl)naphthalene‐1‐sulfonamide] | 2.11 | 31.5 ± 9.2 | 2.11 | – | – | – |
| O=C1N=C(NS(=O)(=O)c2cccc3ccccc23)S/C1=C\c1ccc(Cl)o1 [compound 49, (Z)‐N‐(5‐((5‐chlorofuran‐2‐yl)methylene)‐4‐oxo‐4,5‐dihydrothiazol‐2‐yl)naphthalene‐1‐sulfonamide] | 3.31 | 52.6 ± 9.1 | 3.31 | 3.3 | – | IC50 ([2]; U2OS cells): > 50 µM |
| O=C1N=C(NS(=O)(=O)c2cccc3ccccc23)S/C1=C\c1ccc(Br)o1 [compound 50, (Z)‐N‐(5‐((5‐bromofuran‐2‐yl)methylene)‐4‐oxo‐4,5‐dihydrothiazol‐2‐yl)naphthalene‐1‐sulfonamide] | – | 42.3 ± 25.7 | – | – | – | – |
| O=C1N=C(NS(=O)(=O)c2cccc3ccccc23)S/C1=C\c1ccc(CO)o1 [compound 51, (Z)‐N‐(5‐((5‐(hydroxymethyl)furan‐2‐yl)methylene)‐4‐oxo‐4,5‐dihydrothiazol‐2‐yl)naphthalene‐1‐sulfonamide] | 6.33 | ~156 | 6.33 | 6.3 | – | NTD‐PPI activity relative to halogenated furans (49, 50) ([1]; ELISA, in words): threefold less active; IC50 ([2]; U2OS cells): > 50 µM |
| CN1CCOc2cc(/C=C3\SC(NS(=O)(=O)c4cccc5ccccc45)=NC3=O)ccc21 [compound 53, (Z)‐N‐(5‐((4‐methyl‐3,4‐dihydro‐2H‐benzo[b][1,4]oxazin‐7‐yl)methylene)‐4‐oxo‐4,5‐dihydrothiazol‐2‐yl)naphthalene‐1‐sulfonamide] | – | – | 3.3 | < 5 | 100.7 ± 1 | NTD‐PPI activity relative to 54 ([1]; ELISA, in words): threefold less active |
| O=C1N=C(NS(=O)(=O)c2cccc3ccccc23)S/C1=C\c1ccc2c(c1)OCCO2 [compound 54, (Z)‐N‐(5‐((2,3‐dihydrobenzo[b][1,4]dioxin‐6‐yl)methylene)‐4‐oxo‐4,5‐dihydrothiazol‐2‐yl)naphthalene‐1‐sulfonamide] | 1.2 | ~35 | 1.2 | 1.16 | 60.1 ± 8.6 | fold activity increase (NTD‐PPI) relative to 56 ([1]; ELISA): > 3 fold; CME activity compared with Pitstop 2 ([2]; U2OS cells): threefold decrease; IC50 [3, 7]: 60.1 ± 8.6 µM; IC50 [3, 12]: 60 µM |
| O=C1N=C(NS(=O)(=O)c2cccc3ccccc23)S/C1=C\C1=Cc2ccccc2OC1 [compound 55, (Z)‐N‐(5‐((2H‐chromen‐3‐yl)methylene)‐4‐oxo‐4,5‐dihydrothiazol‐2‐yl)naphthalene‐1‐sulfonamide] | – | – | – | – | 69.3 ± 7.1 | inhibition at 5 µM [2]: 0%; inhibition at 50 µM [2]: 40%; IC50 [3, 12]: 69 µM |
| O=C1N=C(NS(=O)(=O)c2cccc3ccccc23)S/C1=C\c1ccc2nsnc2c1 [compound 58, (Z)‐N‐(5‐(benzo[c][1,2,5]thiadiazol‐5‐ylmethylene)‐4‐oxo‐4,5‐dihydrothiazol‐2‐yl)naphthalene‐1‐sulfonamide] | – | 16.8 ± 7.9 | – | – | ~69.3 | CME activity compared with Pitstop 2 ([2]; U2OS cells): comparable; IC50 [3, 7]: ~69.3 µM |
| O=C1N=C(NS(=O)(=O)c2cccc3ccccc23)S/C1=C\c1c[nH]c2ccc(Cl)cc12 [compound 66, (Z)‐N‐(5‐((5‐chloro‐1H‐indol‐3‐yl)methylene)‐4‐oxo‐4,5‐dihydrothiazol‐2‐yl)naphthalene‐1‐sulfonamide] | – | – | – | – | > 100 | inhibition at 5 µM [2]: 2%; IC50 [3, 9]: > 150 µM |

From PMC12368479, “Inhibition of the Clathrin Terminal Domain—Amphiphysin Protein–Protein Interaction. Probing the Pitstop 2 Aromatic Moiety” (Chemmedchem, 2025)
